In patent US6916808B2, “2-thio-4h-3, 1-benzoxazin-4-one derivatives for use as enzyme inhibitors” (Alizyme Therapeutics Limited, priority 2000, dated 2005):

Molecular target: T1, porcine pancreatic lipase (Sus scrofa, UniProt P00591)
T1 sequence (P00591 1-450): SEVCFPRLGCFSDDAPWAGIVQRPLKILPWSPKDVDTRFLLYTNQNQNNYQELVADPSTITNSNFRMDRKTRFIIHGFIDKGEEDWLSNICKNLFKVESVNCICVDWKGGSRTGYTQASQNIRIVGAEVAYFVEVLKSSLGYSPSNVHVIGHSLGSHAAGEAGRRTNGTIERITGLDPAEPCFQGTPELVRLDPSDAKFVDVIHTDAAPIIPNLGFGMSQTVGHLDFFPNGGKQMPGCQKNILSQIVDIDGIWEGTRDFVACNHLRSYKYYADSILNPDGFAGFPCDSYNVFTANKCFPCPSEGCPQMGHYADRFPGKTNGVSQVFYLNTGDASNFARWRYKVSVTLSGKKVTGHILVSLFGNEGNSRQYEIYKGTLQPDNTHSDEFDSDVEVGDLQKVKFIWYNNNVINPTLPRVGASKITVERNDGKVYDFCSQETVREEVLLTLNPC
Assay: Lipase enzyme activity, NaOH titration method (lipid micelles)
Format: biochemical
Conditions: NaOH titration assay; system containing lipid micelles
Procedure: Measurement of Lipase Enzyme Activity Using a NaOH Titration Method
The inhibitory activity of the selected compounds to pancreatic lipase was measured in the assay described in Pasquier et al; 1996, Vol 7, Nutritional Biochemistry, 293-302.
Log dose/response curves were constructed using a range of inhibitor concentrations.
Selected benzoxazinone compounds were tested in the NaOH titration assay. In this assay, the activity of porcine pancreatic lipase in a system containing lipid micelles is recorded. These conditions are therefore similar to those encountered in the gastrointestinal tract.

SMILES: Cc1ccc2nc(Sc3ccccc3)oc(=O)c2c1 [Compound 4, 6-Methyl-2-phenylthio-4H-3,1-benzoxazin-4-one]
- IC50: < 1000 nM

SMILES: Cc1ccc2nc(SCCCCCCCCCCc3ccccc3)oc(=O)c2c1 [Compound 5, 6-Methyl-2-(10-phenyldecyl)-thio-4H-3,1-benzoxazin-4-one]
- IC50: < 1000 nM
